Measured values as given in patent publication EP1242382B1, “TRICYCLIC PROTEIN KINASE INHIBITORS” (Wyeth, priority 1999, dated 2001).

Legend:
[1] = biological target: T1, EGF-R Kinase (recombinant enzyme) (Homo sapiens, UniProt P00533); test: Inhibition of Epidermal Growth Factor Receptor Kinase (EGF-R) using recombinant enzyme; format: biochemical; settings: RR-SRC peptide substrate, (a) = average of two tests
T1 construct: EGFR cDNA encoding amino acids 645 - 1186 preceded by Met-Ala-(His)6; made in house; host or cells: Sf9 insect cells, recombinant baculovirus vHcEGFR52
Procedure: Representative test compounds are evaluated in a standard pharmacological test procedure to measure their ability to inhibit the phosphorylation of the tyrosine residue of a peptide substrate catalyzed by the enzyme epidermal growth factor receptor kinase. […] The enzyme used in this assay is the His-tagged cytoplasmic domain of EGFR. […] Sf9 cells in 100 mm plates are infected at a multiplicity of infection of 10 pfu/cell and cells are harvested 48 h post infection. A cytoplasmic extract is prepared using 1% Triton X-100 and applied to Ni-NTA column. After washing the column with 20 mM imidazole, HcEGFR is eluted with 250 mM imidazole (in 50 mM Na2HPO4, pH 8.0, 300 mM NaCl). Fractions collected are dialyzed against 10 mM HEPES, pH 7.0, 50 mM NaCl, 10% glycerol, 1ug/mL antipain and leupeptin and 0.1 mM Pefabloc SC. The protein is frozen in dry ice/methanol and stored -70°C.
Test compounds are made into 10 mg/mL stock solutions in 100% dimethylsulfoxide (DMSO). Prior to experiment, stock solutions are diluted to 500 uM with 100% DMSO and then serially diluted to the desired concentration with HEPES buffer (30 mM HEPES pH 7.4).
For the enzyme reaction, 10 uL of each inhibitor (at various concentrations) are added to each well of a 96-well plate. To this is added 3 uL of enzyme (1:10 dilution in 10mM HEPES, pH 7.4 for final conc. of 1:120). This is allowed to sit for 10 min on ice and is followed by the addition of 5 ul peptide (80 uM final conc.), 10ul of 4X Buffer containing 50 mM HEPES (pH 7.4), 200 mM Na3VO4, 40mM MnCl2, 80 uM ATP, 0.25 uL ^33P-ATP (>2500 Ci/mmol; Amersham) and 12 uL H2O. The reaction is allowed to run for 90 min at room temperature and is followed by spotting the entire volume onto precut P81 filter papers. The filter discs are washed 2X with 0.5% phosphoric acid and radioactivity is measured using a liquid scintillation counter.
The % inhibition of the test compound is determined for at least three different concentrations and the IC50 value is evaluated from the dose response curve. […] CPM(control) is in units of counts per minute and is a number expressing the amount of radiolabled ATP (γ-^33P) incorporated into the RR-SRC peptide substrate by the enzyme after 90 minutes at room temperature in the absence of test compound as measured by liquid scintillation counting. The CPM values are corrected for the background counts produced by ATP in the absence of the enzymatic reaction.

[2] = biological target: T2, Raf-1 (c-Raf) (Homo sapiens, UniProt P04049); test: Raf1 kinase cascade assay procedure; format: biochemical
T2 construct: Sf9 insect cell lysate containing full length 6his-tagged recombinant human c-Raf; host or cells: c-Raf: Sf9 insect cell lysate; MEK1 and MAPK: E. coli
T2 sequence (P04049 whole entry): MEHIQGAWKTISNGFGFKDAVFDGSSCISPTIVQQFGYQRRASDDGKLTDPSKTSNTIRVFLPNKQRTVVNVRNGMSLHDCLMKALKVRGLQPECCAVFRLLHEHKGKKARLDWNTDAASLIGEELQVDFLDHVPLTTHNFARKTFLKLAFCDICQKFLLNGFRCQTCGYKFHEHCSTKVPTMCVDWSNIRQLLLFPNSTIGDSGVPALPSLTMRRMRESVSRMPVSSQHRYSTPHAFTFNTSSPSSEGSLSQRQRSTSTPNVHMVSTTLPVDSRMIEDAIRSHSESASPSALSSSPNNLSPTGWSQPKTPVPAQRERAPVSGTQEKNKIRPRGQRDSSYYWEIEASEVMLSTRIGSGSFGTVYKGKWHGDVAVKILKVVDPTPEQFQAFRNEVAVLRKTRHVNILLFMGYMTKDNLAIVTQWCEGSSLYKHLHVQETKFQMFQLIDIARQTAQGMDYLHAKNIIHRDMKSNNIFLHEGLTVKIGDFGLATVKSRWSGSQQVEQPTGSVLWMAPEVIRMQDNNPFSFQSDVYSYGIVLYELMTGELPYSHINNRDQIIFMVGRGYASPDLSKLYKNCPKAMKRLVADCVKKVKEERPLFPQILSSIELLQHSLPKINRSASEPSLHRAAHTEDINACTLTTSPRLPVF

T1 sequence (P00533 669-1210): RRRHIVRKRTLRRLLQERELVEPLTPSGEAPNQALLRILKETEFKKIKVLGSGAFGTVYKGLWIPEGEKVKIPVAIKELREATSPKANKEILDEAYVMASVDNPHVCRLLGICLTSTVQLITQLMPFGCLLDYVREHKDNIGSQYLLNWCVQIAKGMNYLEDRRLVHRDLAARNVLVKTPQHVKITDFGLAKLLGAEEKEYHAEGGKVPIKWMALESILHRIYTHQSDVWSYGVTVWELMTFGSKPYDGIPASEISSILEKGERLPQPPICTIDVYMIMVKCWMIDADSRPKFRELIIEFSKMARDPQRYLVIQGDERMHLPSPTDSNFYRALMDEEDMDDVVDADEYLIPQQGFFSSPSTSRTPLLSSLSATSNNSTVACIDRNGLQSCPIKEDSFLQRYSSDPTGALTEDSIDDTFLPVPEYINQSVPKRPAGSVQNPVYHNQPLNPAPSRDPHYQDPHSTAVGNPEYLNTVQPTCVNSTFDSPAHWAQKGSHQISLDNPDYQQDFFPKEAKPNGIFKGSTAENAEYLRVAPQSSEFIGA

COc1cc2cc3c(Nc4ccc(OCc5ccccc5)c(Cl)c4)c(C#N)cnc3cc2cc1OCCN1CCOCC1 [Example 218, 4-(4-Benzyloxy-3-chlorophenylamino)-7-methoxy-8-(2-morpholin-4-yl-ethoxy)benzo[g]quinoline-3-carbonitrile]
IC50 [1]: 5.3 nM | IC50 [2]: 660 nM
